# Where two headings read alike, the source gives them in different places.
# Legend:
# rat jejunal sac [1] = experiment: In vitro permeation of rat jejunal sac by iron complexes
# Procedure: Rats (male Sprague Dawley, 60 g) were killed and the jejunum removed, everted and cut into three segments (4 cm length). The segments were tied at both ends, filled with Krebs Ringer buffer (0.2 ml) and incubated in Krebs Ringer buffer containing the appropriate ^59 Fe compound at 37° C. for periods up to 90 minutes. The contents of the sac were counted for ^59 Fe and measured spectrophotometrically.
# [2] = In vivo test of action of iron compounds in the rat (59Fe into duodenum)
# Procedure: Groups of rats (300-350 g) were anaesthetised with nembutal (0.25 ml) and then with ether. A mid-line incision was made and the ^59 Fe labelled sample (100 μg Fe, 10 μCi) was passed into the lumen of the duodenum via a small incision. The abdominal well was then closed with a suture. The animals were sacrificed 1, 2, 4 and 6 hours after the administration of the compound and the various organs were monitored for their ^59 Fe content. […] In the case of the data for blood and sternum (bone marrow) the counts given are cpm/ml and cpm/g respectively, whilst in all other cases they are the total cpm counts.
# [3] = format: in vivo, cat
# Procedure: (§1) Cats were anaesthetised with chloralase (60 mg/kg) and pentobarbitone sodium (60 mg/kg) (i.p.), having been kept free of food for 18 hours. In each animal the trachea was cannulated to maintain a clear airway and to allow positive pressure artificial respiration if necessary. The left femoral vien was cannulated for the intravenous administration of drugs and physiological saline solution. Arterial blood pressure was monitored by a Washington pressure transducer through a cannula inserted into the femoral artery of the right hind leg. Arterial blood samples were taken at appropriate intervals from a short cannula inserted into an external carotid artery. Body temperature was monitored with a rectal thermometer. Each animal was given heparin (1000 iu/kg) as anticoagulant and additional small amounts of pentabarbitone sodium if needed to maintain a satisfactory level of anaesthesia.
# The apparent volume of distribution of the compound was calculated by extrapolation of the log-linear blood concentration curve to zero.
# The amount of ^59 Fe administered in this experiment was 4 μCi of 2.2×10^6 cpm.
# [4] = In vivo cat, duodenal: 59Fe blood level and tissue distribution
# Procedure: as §1
# In those animals where the iron compounds were to be administered into the duodenum, a mid-line incision was made in the abdomen to reveal the intestines. A cannula was then inserted through a small cut such that its tip rested approximately 5 cm below the opening of the bile duct. The cannula was then sutured in place and the abdominal wall closed with stitches.
# The distribution of ^59 Fe in the tissues of the animal after the same duodenal experiment to which FIG. 7 relates were investigated and the typical results are shown in Table 7. The amount of ^59 Fe administered in this experiment was 10 μCi or 5.327×10^6 cpm into a 2.9 kg cat. It will be seen that the distribution of the ^59 Fe after 4 hours was similar to that after intravenous infusion, with low levels in the kidney and urine and high levels in both the spleen and bone marrow.
# The distribution of ^59 Fe in the tissues of the animal after the same duodenal experiment were investigated and the typical results are shown in Table 8. The amount of ^59 Fe administered in this experiment was 10 μCi or 2.65×10^6 cpm into a 2.9 kg cat. It will be seen that, although some ^59 Fe entered the tissues, rather low levels were detected in the spleen and bone marrow (sternum) whereas a large proportion of the dose was located in the urine.
# [5] = Excerpt: (§2) In order to solubilise iron(III) hydroxide, log Ksol must be greater than 0.
# apotransferrin = experiment: Exchange of iron(III) between complex and apotransferrin
# Excerpt: as §2
# [6] = remark: listed apart in the source
# Procedure: An indication of the properties of a compound in this respect is provided by the value of the partition coefficient (Kpart) obtained on partition between n-octanol and Tris hydrochloride (20 mM, pH 7.4; Tris representing 2-amino-2-hydroxymethylpropane 1,3-diol) at 20° C. and expressed as the ratio (concentration of compound in organic phase)/(concentration of compound in aqueous phase).
# Acid washed glassware is used throughout and, following mixing for 1 minute, the aqueous/n-octanol mixture is centrifuged at 1000 g for 30 seconds. The two resulting phases are separated for a concentration determination by spectrophotometry on each.
# haemoglobin = experiment: Binding to haemoglobin by gel permeation elution profile of 59Fe; conditions: 1 mM complex, NaCl 130 mM, pH 7.4, PD-10 column
# [7] = system: bovine serum albumen (BSA); experiment: Binding to bovine serum albumen (BSA); conditions: column procedure as for haemoglobin
# human erythrocytes = format: in vitro ADME; conditions: not told
# Procedure: Following this period of incubation an aliquot of the erythrocyte/medium mixture was placed above a layer of silicone oil (.rho.=1.06) and the erythrocytes separated by centrifugation through the oil. The ^59 Fe levels associated with the erythrocytes and the incubation medium were then counted and presented as a distribution ratio (concentration in erythrocytes/concentration in medium).
# erythrocyte ghosts = format: binding, human
# Excerpt: Experiments to determine the percentage of ^59 Fe associated with erthrocyte ghosts after lysis confirm this hypothesis. In one experiment, lysis was initiated by a small volume of 10% v/v Triton X100 and in a second experiment by a 10 fold excess of water. […] Such binding is of course undesirable as the complex is likely to remain tightly bound to the membrane by electrostatic interactions and not be transmitted across it.
# rat jejunal sac [8] = format: in vitro ADME, rat (male Sprague Dawley)
# Excerpt: The procedure described above was used to compare the uptake of iron from buffer containing differing molar proportions of maltol:iron.
# [9] = Affinity of maltol for copper (II), zinc (II), calcium and magnesium; format: physicochemical; conditions: compared with iron
# Excerpt: as §2
# [10] = Metabolism of free hydroxypyrone
# [11] = relative to ferric chloride as 1, 37° C.
# [12] = iron EDTA duodenal, 2.65×10^6 cpm
# [13] = n-octanol/tris hcl, 100 µM, pH 7.4
compound,measurement,setting,value
"[Cl][Fe]([Cl])[Cl] [FeCl3, ferric chloride]","Relative iron uptake, 15 minutes",rat jejunal sac [1]; [11],1
same,"Relative iron uptake, 60 minutes",rat jejunal sac [1]; [11],1
O=C([O-])/C=C/C(=O)[O-].[Fe+2] [Fe^II fumarate],"Relative iron uptake, 15 minutes",rat jejunal sac [1],4.0
same,"Relative iron uptake, 60 minutes",rat jejunal sac [1],1.8
O=C([O-])CCC(=O)[O-].[Fe+2] [Fe^II succinate],"Relative iron uptake, 15 minutes",rat jejunal sac [1],2.0
same,"Relative iron uptake, 60 minutes",rat jejunal sac [1],1.0
"O=S(=O)([O-])[O-].[Fe+2] [Fe^II sulphate, iron(II) sulphate]","Relative iron uptake, 15 minutes",rat jejunal sac [1],2.4
same,"Relative iron uptake, 60 minutes",rat jejunal sac [1],1.4
O=C([O-])CC(O)(CC(=O)[O-])C(=O)[O-].[Fe+3] [Fe^III citrate],"Relative iron uptake, 15 minutes",rat jejunal sac [1],2.0
same,"Relative iron uptake, 60 minutes",rat jejunal sac [1],1.8
O=C([O-])CN(CCN(CC(=O)[O-])CC(=O)[O-])CC(=O)[O-].[Fe+3] [Iron EDTA],59Fe levels in the intestine wall and blood,[2]; 100 μg Fe,extremely low
same,iron transfer to / 59Fe levels in bone marrow and spleen,"[2]; 100 μg Fe, compared with maltol complex",reduced rates
same,59Fe in gut washings,"[2]; 100 μg Fe, non-absorbed iron",remain high for 4 hours
same,dose located in the urine,"[3]; cat, in vivo, iv",over 50%
same,rate constant of the elimination from the blood of the linear phase,"[3]; cat, in vivo, iv",0.023 min⁻¹
same,"Net 59Fe content, Heart","[3]; in vivo, iv",209 cpm/g
same,"Net 59Fe content, Kidney","[3]; in vivo, iv","1,134 cpm/g"
same,"Net 59Fe content, Liver","[3]; in vivo, iv",261 cpm/g
same,"Net 59Fe content, Spleen","[3]; in vivo, iv",162 cpm/g
same,"Net 59Fe content, Sternum (bone marrow)","[3]; in vivo, iv","1,164 cpm/g"
same,"Net 59Fe content, Urine","[3]; in vivo, iv","62,156 cpm/g"
same,"Net total 59Fe content, Heart","[3]; in vivo, iv","3,248 cpm"
same,"Net total 59Fe content, Kidney","[3]; in vivo, iv","21,770 cpm"
same,"Net total 59Fe content, Liver","[3]; in vivo, iv","19,600 cpm"
same,"Net total 59Fe content, Spleen","[3]; in vivo, iv","1,814 cpm"
same,"Net total 59Fe content, Urine","[3]; in vivo, iv","1,180,900 cpm"
same,kinetics of loss of radioactivity from blood,"[3]; in vivo, iv",at least a two-component process
same,"Net 59Fe content, Skeletal muscle","[3]; iron EDTA i.v., adjusted to 2.2×10^6 cpm",95 cpm/g
same,plasma levels of radioactivity,[4]; duodenal,hardly exceeded the background level
same,"Net 59Fe content, Heart",[4]; [12],188 cpm/g
same,"Net 59Fe content, Kidney",[4]; [12],"1,762 cpm/g"
same,"Net 59Fe content, Liver",[4]; [12],499 cpm/g
same,"Net 59Fe content, Skeletal muscle",[4]; [12],117 cpm/g
same,"Net 59Fe content, Spleen",[4]; [12],200 cpm/g
same,"Net 59Fe content, Sternum (bone marrow)",[4]; [12],917 cpm/g
same,"Net 59Fe content, Urine",[4]; [12],"36,306 cpm/g"
same,"Net total 59Fe content, Heart",[4]; [12],"2,878 cpm"
same,"Net total 59Fe content, Kidney",[4]; [12],"19,913 cpm"
same,"Net total 59Fe content, Liver",[4]; [12],"29,574 cpm"
same,"Net total 59Fe content, Spleen",[4]; [12],880 cpm
same,"Net total 59Fe content, Urine",[4]; [12],"544,596 cpm"
Cc1occc(=O)c1[O-].Cc1occc(=O)c1[O-].Cc1occc(=O)c1[O-].[Fe+3] [Iron maltol],thermodynamic stability constant,[5],30
same,lability of the complex,apotransferrin,extremely labile
same,partition coefficient Kpart (concentration in n-octanol/concentration in aqueous phase),[6]; [13],0.50
same,binding to haemoglobin,haemoglobin,no evidence is found for binding
same,binding to bovine serum albumen,[7],little ability to bind to BSA
same,time for erythrocyte uptake to reach equilibrium,human erythrocytes,about 15 minutes
same,"Iron associated with ghosts, Hypotonic lysis",erythrocyte ghosts,< 5%
same,"Iron associated with ghosts, Triton lysis",erythrocyte ghosts,< 1%
same,"Relative iron uptake, 15 minutes",rat jejunal sac [1],40
same,"Relative iron uptake, 60 minutes",rat jejunal sac [1],5.8
same,concentration range over which uptake increased linearly,rat jejunal sac [1],500 to 10000 µM
same,period over which uptake was linear,rat jejunal sac [1],90 min
same,Iron uptake into serosal contents of the sac,rat jejunal sac [8],30.0 n mole
same,proportion of total iron present as 3:1 complex,rat jejunal sac [8]; at 2:1 ratio of maltol:iron,13%
same,59Fe directed to the bone marrow,"[3]; cat, in vivo, iv",approximately 90%
same,"dose located in combined tissue of heart, liver and spleen","[3]; cat, in vivo, iv",approximately 10%
same,dose located in the urine,"[3]; cat, in vivo, iv",less than 0.2%
same,"Net 59Fe content, Heart","[3]; in vivo, iv",490 cpm/g
same,"Net 59Fe content, Kidney","[3]; in vivo, iv",546 cpm/g
same,"Net 59Fe content, Liver","[3]; in vivo, iv",510 cpm/g
same,"Net 59Fe content, Skeletal muscle","[3]; in vivo, iv",0 cpm/g
same,"Net 59Fe content, Spleen","[3]; in vivo, iv","14,890 cpm/g"
same,"Net 59Fe content, Sternum (bone marrow)","[3]; in vivo, iv","3,200 cpm/g"
same,"Net 59Fe content, Urine","[3]; in vivo, iv",152 cpm/g
same,"Net total 59Fe content, Heart","[3]; in vivo, iv","7,056 cpm"
same,"Net total 59Fe content, Kidney","[3]; in vivo, iv","6,661 cpm"
same,"Net total 59Fe content, Liver","[3]; in vivo, iv","53,550 cpm"
same,"Net total 59Fe content, Skeletal muscle","[3]; in vivo, iv",0 cpm
same,"Net total 59Fe content, Spleen","[3]; in vivo, iv","125,076 cpm"
same,"Net total 59Fe content, Urine","[3]; in vivo, iv","< 3,000 cpm"
same,apparent volume of distribution,"[3]; in vivo, iv",a value between that of the total extracellular space of the animal and the blood volume
"Cc1occc(=O)c1O [maltol, 3-hydroxy-2-methyl-4-pyrone]",affinity for iron (log β3),[5],30
same,"affinity for copper (II), zinc (II), calcium and magnesium",[9],lower affinity
same,partition coefficient Kpart (concentration in n-octanol/concentration in aqueous phase),"[6]; n-octanol/Tris hydrochloride 20 mM, pH 7.4, 10^-4 M, spectrophotometry",0.66
same,deposition of iron in the bone marrow over time,[2]; 6 hour period,continuously throughout the 6 hour period at an apparently constant rate
same,metabolism,[10],rapidly metabolized
iron(II) gluconate [Fe^II gluconate],"Relative iron uptake, 15 minutes",rat jejunal sac [1],1.6
same,"Relative iron uptake, 60 minutes",rat jejunal sac [1],0.8
iron(III) ascorbate [Fe^III ascorbate],partition coefficient Kpart (concentration in n-octanol/concentration in aqueous phase),[6]; [13],0.0015
same,"Relative iron uptake, 15 minutes",rat jejunal sac [1],0.4
same,"Relative iron uptake, 60 minutes",rat jejunal sac [1],0.8

# Source: patent US5028411A, “Pharmaceutical compositions” (priority 1984, dated 1991)
